Consider two compounds from patent US20250213463A1, “TOPICAL COMPOSITION AND USES THEREOF” (COTY INC., priority 2021, published 2025).

The test system of the experiment is Normal human primary fibroblasts. Description: Fibronectin release by UV-irradiated normal human primary fibroblasts (Human Magnetic Luminex Assay). It counts as cell-based. How it is done: Normal human primary fibroblasts were seeded in culture well plates at 200,000 cells/cm^2 with DMEM (Dulbecco's Modified Eagle Medium) culture medium. 24 hours later, culture medium was removed, cells were rinsed with PBS (Phosphate Buffered Saline), and fresh PBS was applied to the cells. Cells were then exposed to UV irradiation (from 300 to 400 nm) for a time to cause physical and/or chemical UV-induced change, without exposure to active ingredients. Immediately after irradiation, PBS was removed and the active ingredients creatine, palmitoylTripeptide-5 (Lys-Val-Lys) and bifida ferment lysate diluted in culture medium were applied for 72 hours. Cells were incubated at +37° C. with 5% CO2.
Quantification of fibronectin release was performed by using Human Magnetic Luminex Assays (ref: LXSAHM-03) according to the protocol described by the supplier. Results were expressed in pg/ml.

Take `CN(CC(=O)O)C(=N)N` [Creatine]: the “effect on fibronectin production/levels (in words)” value (UV-irradiated fibroblasts, 72 hours treatment, FIG. 1) is listed as “does not appear to exert a positive impact”.
On to palmitoylTripeptide-5 (Lys-Val-Lys), for which the “increase in fibronectin production over either no treatment or creatine treatment alone” value (UV-irradiated fibroblasts, 72 hours treatment) is 36.9%. The “fibronectin production in irradiated cells” value (fibroblasts exposed to UV (300 to 400 nm), then actives in culture medium for 72 hours) was 550K.
